Test results taken from patent publication US20240327364A1, “THERAPEUTIC TARGETING OF GPR68 TO INDUCE FERROPTOSIS” (University Of Maryland, Baltimore, priority 2023, published 2024).

Key:
[1] = target: T1, TESK1 (Homo sapiens, UniProt Q15569); assay: KinomeScan; format: binding; details: read-out: % Control
T1 construct: purchased DiscoveRx (Fremont, CA)

[2] = target: T2, MLK3 (Homo sapiens, UniProt Q16584); assay: KinomeScan; format: binding; details: read-out: % Control
T2 construct: purchased DiscoveRx

[3] = target: T3, CysLT1 (Homo sapiens, UniProt Q9Y271); assay: GPCR Profiler; format: cell-based
T3 construct: host or cells: Chem-1 cells with Gα15
T3 sequence (Q9Y271 whole entry, species assumed): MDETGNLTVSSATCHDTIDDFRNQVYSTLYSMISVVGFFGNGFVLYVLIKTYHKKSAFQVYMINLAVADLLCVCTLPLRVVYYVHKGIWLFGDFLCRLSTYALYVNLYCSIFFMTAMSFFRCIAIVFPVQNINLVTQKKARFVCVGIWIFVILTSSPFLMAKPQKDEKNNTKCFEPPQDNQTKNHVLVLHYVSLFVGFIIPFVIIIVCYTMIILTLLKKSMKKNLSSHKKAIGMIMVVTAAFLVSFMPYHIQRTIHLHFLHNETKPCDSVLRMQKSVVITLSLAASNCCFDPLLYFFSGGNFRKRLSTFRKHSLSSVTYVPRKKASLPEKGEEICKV

[4] = target: T4, IKK-beta (Homo sapiens, UniProt O14920); assay: KinomeScan; format: binding; details: read-out: % Control
T4 construct: purchased DiscoveRx (Fremont, CA)

[5] = target: T5, PFPK5(P. falciparum) (Plasmodium falciparum, UniProt P61075); assay: KinomeScan; format: binding; details: read-out: % Control
T5 construct: purchased DiscoveRx (Fremont, CA)
T5 sequence (P61075 whole entry): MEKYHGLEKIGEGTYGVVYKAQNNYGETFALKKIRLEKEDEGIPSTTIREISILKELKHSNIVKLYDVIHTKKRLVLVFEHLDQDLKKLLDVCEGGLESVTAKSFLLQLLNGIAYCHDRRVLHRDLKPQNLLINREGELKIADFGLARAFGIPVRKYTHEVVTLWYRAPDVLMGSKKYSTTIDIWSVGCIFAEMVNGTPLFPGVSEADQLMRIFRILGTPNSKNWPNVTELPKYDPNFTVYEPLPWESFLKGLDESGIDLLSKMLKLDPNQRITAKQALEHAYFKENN

[6] = target: T6, MET(Y1235D) (Homo sapiens, UniProt P08581, Y1235D); assay: KinomeScan; format: binding; details: read-out: % Control
T6 construct: purchased DiscoveRx

[7] = target: T7, YANK2 (Homo sapiens, UniProt Q9NY57); assay: KinomeScan; format: binding; details: read-out: % Control
T7 construct: purchased DiscoveRx
T7 sequence (Q9NY57 whole entry): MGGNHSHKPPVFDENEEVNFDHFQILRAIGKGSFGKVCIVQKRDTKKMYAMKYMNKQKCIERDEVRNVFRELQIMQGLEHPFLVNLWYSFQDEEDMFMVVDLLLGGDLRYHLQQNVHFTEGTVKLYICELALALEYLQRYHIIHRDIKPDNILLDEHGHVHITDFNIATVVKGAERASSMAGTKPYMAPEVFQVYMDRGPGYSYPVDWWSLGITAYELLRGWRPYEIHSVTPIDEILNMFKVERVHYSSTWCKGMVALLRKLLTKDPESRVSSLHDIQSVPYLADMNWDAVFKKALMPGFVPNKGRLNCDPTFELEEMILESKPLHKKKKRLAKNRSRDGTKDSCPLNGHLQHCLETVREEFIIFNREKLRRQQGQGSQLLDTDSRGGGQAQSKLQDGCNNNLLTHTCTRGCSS

[8] = target: T8, TEC (Homo sapiens, UniProt P42680); assay: KinomeScan; format: binding; details: read-out: % Control
T8 construct: purchased DiscoveRx (Fremont, CA)

[9] = target: T9, NEK5 (Homo sapiens, UniProt Q6P3R8); assay: KinomeScan; format: binding; details: read-out: % Control
T9 construct: purchased DiscoveRx

[10] = target: T10, SNRK (Homo sapiens, UniProt Q9NRH2); assay: KinomeScan; format: binding; details: read-out: % Control
T10 construct: purchased DiscoveRx (Fremont, CA)

[11] = target: T11, CDK7 (Homo sapiens, UniProt P50613); assay: KinomeScan; format: binding; details: read-out: % Control
T11 construct: purchased DiscoveRx (KinomeScan service)
T11 sequence (P50613 whole entry): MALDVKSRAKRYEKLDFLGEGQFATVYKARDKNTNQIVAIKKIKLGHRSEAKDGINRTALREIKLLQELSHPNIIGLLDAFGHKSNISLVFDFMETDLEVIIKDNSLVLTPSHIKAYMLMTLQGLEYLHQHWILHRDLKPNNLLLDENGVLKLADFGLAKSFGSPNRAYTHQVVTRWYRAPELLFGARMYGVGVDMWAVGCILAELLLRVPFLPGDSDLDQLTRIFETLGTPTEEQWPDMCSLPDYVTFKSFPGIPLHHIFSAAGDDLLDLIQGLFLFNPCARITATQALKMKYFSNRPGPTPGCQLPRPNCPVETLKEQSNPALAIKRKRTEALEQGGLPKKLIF

[12] = target: T12, PK2 (Homo sapiens, UniProt Q8NFJ6); assay: GPCR Profiler; format: cell-based
T12 construct: host or cells: Chem-1 cells with Gα15
T12 sequence (Q8NFJ6 whole entry): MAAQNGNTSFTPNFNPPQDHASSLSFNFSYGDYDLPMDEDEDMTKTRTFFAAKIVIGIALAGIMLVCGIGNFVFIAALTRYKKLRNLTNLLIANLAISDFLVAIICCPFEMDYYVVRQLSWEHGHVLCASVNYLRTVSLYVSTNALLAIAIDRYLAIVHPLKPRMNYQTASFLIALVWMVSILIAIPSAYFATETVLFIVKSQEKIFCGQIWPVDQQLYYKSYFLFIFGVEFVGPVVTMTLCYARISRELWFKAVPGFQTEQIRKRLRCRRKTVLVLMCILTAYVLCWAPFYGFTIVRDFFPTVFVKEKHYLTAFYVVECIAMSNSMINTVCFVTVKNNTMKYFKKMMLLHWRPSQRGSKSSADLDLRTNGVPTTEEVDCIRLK

[13] = target: T13, BRSK1 (Homo sapiens, UniProt Q8TDC3); assay: KinomeScan; format: binding; details: read-out: % Control
T13 construct: purchased DiscoveRx (KinomeScan service)
T13 sequence (Q8TDC3 whole entry): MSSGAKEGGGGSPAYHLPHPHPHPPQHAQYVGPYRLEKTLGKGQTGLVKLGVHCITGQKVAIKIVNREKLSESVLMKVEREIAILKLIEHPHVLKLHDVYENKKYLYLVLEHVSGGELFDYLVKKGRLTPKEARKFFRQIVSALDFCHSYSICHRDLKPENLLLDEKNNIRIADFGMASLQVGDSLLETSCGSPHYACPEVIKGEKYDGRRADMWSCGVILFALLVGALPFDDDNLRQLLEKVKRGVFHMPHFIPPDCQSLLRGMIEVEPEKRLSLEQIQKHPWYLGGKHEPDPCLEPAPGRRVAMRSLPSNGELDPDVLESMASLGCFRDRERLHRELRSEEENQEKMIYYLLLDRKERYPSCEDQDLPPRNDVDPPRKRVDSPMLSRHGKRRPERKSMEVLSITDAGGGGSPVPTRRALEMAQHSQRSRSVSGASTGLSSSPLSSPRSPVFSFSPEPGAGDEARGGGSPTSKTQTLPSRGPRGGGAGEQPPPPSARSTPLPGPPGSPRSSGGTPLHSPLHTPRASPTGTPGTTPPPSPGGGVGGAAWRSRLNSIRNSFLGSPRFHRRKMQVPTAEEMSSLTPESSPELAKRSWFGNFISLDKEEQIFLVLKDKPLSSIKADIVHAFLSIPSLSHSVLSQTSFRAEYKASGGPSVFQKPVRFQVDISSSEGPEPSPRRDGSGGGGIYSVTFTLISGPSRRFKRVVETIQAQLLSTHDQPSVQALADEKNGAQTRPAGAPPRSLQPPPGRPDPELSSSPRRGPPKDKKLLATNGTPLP

[14] = target: T14, MAP4K4 (Homo sapiens, UniProt O95819); assay: KinomeScan; format: binding; details: read-out: % Control
T14 construct: purchased DiscoveRx (Fremont, CA)

[15] = target: T15, TRPM6 (Homo sapiens, UniProt Q9BX84); assay: KinomeScan; format: binding; details: read-out: % Control
T15 construct: purchased DiscoveRx (Fremont, CA)
T15 sequence (Q9BX84 whole entry): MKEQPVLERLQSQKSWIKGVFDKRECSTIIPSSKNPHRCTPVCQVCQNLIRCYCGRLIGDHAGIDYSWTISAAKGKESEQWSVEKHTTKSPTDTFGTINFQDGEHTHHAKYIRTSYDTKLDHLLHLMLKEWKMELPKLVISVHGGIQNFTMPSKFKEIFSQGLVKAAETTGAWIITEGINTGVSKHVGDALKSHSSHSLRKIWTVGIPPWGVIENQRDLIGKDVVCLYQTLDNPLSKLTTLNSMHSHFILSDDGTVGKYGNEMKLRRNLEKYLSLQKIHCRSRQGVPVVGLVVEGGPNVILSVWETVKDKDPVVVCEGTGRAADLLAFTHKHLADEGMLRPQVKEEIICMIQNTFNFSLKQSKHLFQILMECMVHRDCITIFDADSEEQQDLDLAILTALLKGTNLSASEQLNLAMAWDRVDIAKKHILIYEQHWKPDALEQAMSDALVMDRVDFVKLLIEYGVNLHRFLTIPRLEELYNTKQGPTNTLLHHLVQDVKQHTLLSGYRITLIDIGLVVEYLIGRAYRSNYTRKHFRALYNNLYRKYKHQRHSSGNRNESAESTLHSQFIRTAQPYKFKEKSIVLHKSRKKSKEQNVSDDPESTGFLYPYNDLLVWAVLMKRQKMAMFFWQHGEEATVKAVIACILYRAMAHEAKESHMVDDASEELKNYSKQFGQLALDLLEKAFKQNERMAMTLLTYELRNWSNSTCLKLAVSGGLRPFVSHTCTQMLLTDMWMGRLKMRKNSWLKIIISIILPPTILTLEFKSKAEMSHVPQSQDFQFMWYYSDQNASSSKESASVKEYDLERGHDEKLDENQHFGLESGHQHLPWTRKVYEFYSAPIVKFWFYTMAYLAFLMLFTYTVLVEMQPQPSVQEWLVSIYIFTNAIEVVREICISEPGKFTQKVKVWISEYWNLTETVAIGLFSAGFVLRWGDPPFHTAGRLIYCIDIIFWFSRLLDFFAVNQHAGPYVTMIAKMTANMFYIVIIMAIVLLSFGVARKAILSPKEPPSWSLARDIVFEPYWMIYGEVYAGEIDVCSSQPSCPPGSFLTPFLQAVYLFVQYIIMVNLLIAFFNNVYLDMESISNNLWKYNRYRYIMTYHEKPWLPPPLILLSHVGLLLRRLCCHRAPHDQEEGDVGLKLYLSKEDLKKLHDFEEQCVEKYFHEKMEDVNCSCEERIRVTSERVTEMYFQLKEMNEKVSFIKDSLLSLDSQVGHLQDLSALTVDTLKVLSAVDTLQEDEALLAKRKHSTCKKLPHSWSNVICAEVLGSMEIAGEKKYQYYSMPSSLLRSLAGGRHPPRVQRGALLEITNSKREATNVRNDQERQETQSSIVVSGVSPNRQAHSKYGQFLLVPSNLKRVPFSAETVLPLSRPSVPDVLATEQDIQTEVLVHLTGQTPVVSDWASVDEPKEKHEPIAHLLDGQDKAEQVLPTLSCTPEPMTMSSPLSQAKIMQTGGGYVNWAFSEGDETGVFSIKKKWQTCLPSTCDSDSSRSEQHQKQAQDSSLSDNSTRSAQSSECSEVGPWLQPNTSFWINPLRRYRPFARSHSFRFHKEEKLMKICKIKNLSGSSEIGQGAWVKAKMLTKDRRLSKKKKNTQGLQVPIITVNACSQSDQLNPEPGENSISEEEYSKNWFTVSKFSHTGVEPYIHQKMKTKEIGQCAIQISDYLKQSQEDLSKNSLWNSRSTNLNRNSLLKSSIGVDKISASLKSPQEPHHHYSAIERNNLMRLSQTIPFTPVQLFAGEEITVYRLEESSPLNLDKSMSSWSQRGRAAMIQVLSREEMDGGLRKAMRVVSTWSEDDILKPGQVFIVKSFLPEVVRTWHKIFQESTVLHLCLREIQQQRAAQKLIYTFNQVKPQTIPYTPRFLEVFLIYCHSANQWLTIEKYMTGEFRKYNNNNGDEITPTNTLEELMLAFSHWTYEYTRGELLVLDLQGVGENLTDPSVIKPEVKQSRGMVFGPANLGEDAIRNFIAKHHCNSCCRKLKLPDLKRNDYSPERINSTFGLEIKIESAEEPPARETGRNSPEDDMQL

[16] = target: T16, FPR1 (Homo sapiens, UniProt P21462); assay: GPCR Profiler; format: cell-based
T16 construct: host or cells: Chem-1 cells expressing Gα15
T16 sequence (P21462 whole entry): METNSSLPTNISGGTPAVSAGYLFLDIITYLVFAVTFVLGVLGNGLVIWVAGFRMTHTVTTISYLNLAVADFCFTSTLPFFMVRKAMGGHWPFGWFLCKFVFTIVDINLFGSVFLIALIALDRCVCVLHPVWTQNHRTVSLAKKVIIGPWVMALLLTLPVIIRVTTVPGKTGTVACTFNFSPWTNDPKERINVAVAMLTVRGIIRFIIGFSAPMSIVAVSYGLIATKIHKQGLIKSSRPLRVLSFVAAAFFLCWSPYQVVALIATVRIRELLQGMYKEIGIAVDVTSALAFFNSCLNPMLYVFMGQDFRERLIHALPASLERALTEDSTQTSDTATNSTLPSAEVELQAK

[17] = target: T17, ULK2 (Homo sapiens, UniProt Q8IYT8); assay: KinomeScan; format: binding; details: read-out: % Control
T17 construct: purchased DiscoveRx

[18] = target: T18, TYRO3 (Homo sapiens, UniProt Q06418); assay: KinomeScan; format: binding; details: read-out: % Control
T18 construct: purchased DiscoveRx

[19] = target: T19, LRRK2 (Homo sapiens, UniProt Q5S007); assay: KinomeScan; format: binding; details: read-out: % Control
T19 construct: purchased DiscoveRx

[20] = tested on: RWGT2; assay: Cell Titer-Glo viability, Lung cancer, squamous cell; format: cell-based
Protocol: OGM2 kills wide variety of cancer cell types. Cell sensitivity can be classified in to Very Sensitive (LC50<2 μM), Sensitive (LC50=2 to 10 μM), Mildly Sensitive (LC50>10 μM), and Refractory (no killing at 10 μM). The listed established cell were incubated with OGM2 at 2 μM or 10 μM for 72 hours under standard cell culture conditions, and relative cell number was assessed using Cell Titer-Glo Luminescent Cell Viability Assay (Promega™) following the manufacturer's instructions. Luminescence was determined using a Cytation 5 reader and Gen5 software package (BioTek™).
Cancer cells, which are very sensitive to killing by OGM2 (LCs <2 μM), with reported mRNA expression of GPR68 and the related proton sensing receptor GPR4. LC50's (concentrations causing 50% lethality) were determined using CellTiter-Glo (Promega™, G7570). Cells were plated in 12-well plates (CELLTREAT Scientific Products, 229112) in 1 ml of DMEM with high glucose, GlutaMAX, HEPES, or RPMI 1640 with Penicillin-Streptomycin (ThermoFisher™, 10564029, 11875119 and 15140122) and 10% FBS. Cells were incubated overnight at 37° C. in 5% CO2. Then 1 mL of fresh media was added with DMSO, OGM, or positive control (Erastin; APExBIO Technology, LLC, B1524) and cells incubated for 3 days. On the third day, all media was removed, cells were rinsed with 1×PBS, PBS was removed, and 200 μL of 1× Passive Lysis Buffer (Promega™, E1941) was added to each well. […]. Subsequently, 20 μL of lysate was added to 100 μL CellTiter-Glo™ reagent on a LUMITRAC 200 plate (Greiner™ bio-one, 82050-726). Plates were briefly spun down and read on a GloMax-Multi Detection System (Promega™).
The cells listed in the tables above were incubated with OGM2 at 2 μM or 10 μM for 72 hours under standard cell culture conditions, and relative cell number was assessed using Cell Titer-Glo Luminescent Cell Viability Assay (Promega™) following the manufacturer's instructions. Luminescence was determined using a Cytation 5 reader and Gen5 software package (BioTek™). RNA expression of GPR68 and GPR4 in the corresponding cancer cell lines are listed, according to the publicly available The Human Protein Atlas version 22.0 and Ensembl version 103.38 (see proteinatlas.org). The consensus normalized expression value (“nTPM”=normalize transcript per million) was calculated as the maximum nTPM value for each gene in the two data sources.

[21] = tested on: WM115; assay: Scratch assay; format: cell-based, human; details: 20 hours, OGM2 5 uM
Protocol: (§1) Since there are numerous parallels are found between neural crest cells and cancer during migration, we examined whether OGM could inhibit the migration of cells in human melanoma cell lines (Oppitz et al., 2007; Schriek et al., 2005, Sinnberg et al., 2018). […] A2058. MeWo and WM115 cells were grown to confluence and a stripe of cells were denuded with a p200 pipette tip “scratch” and rinsed with PBS. Cells were treated with OGM or DMSO and incubated in low serum media. Imaging was done at 30 minutes after “scratch” and then 20 hours afterwards. Areas were then measured and normalized to the initial area.

[22] = tested on: MeWo; assay: Scratch assay; format: cell-based, human; details: 20 hours, OGM2 5 uM
Protocol: as §1

## CCc1ccc2c(c1)C1(NN=C(c3cccc4ccccc34)S1)C(=O)N2 (stereo not shown) [OGM1, 5-ethyl-5′-naphthalen-1-ylspiro[1H-indole-3,2′-3H-1,3,4-thiadiazole]-2-one]
[1]
  remaining binding at 10 µM: 100%
[2]
  remaining binding at 10 µM: 100%
[3]; 10 uM
  Antagonism: −2.4
[3]; 12.5 uM
  Agonism: 0.8
[4]
  remaining binding at 10 µM: 92%
[5]
  remaining binding at 10 µM: 82%
[6]
  remaining binding at 10 µM: 100%
[7]
  remaining binding at 10 µM: 100%
[8]
  remaining binding at 10 µM: 93%
[9]
  remaining binding at 10 µM: 95%
[10]
  remaining binding at 10 µM: 100%
[11]
  remaining binding at 10 µM: 64%
[12]; 10 uM
  Antagonism: 7.2
[12]; 12.5 uM
  Agonism: −0.1
[13]
  remaining binding at 10 µM: 100%
[14]
  remaining binding at 10 µM: 100%
[15]
  remaining binding at 10 µM: 80%
[16]; 10 uM
  Antagonism: 14.3
[16]; 12.5 uM
  Agonism: −0.2
[17]
  remaining binding at 10 µM: 100%
[18]
  remaining binding at 10 µM: 100%
[19]
  remaining binding at 10 µM: 100%

## CCc1ccc2c(c1)C1(NN=C(c3ccccc3)S1)C(=O)N2 (stereo not shown) [OGM2]
[20]
  Class: Very Sensitive (Very Sensitive (LC50<2 μM))
[20]; 72 hours
  % Survival 2 μM OGM: 39.9%
  % Survival 10 μM OGM: 37.1%
[20]; Homo sapiens, 72 hours, read-out: LC50 (the source's name)
  CC50: < 2000 nM
[21]
  migration: inhibited migration
[22]
  migration: inhibited migration
